Source: paper PMC4307180, “Overcoming myelosuppression due to synthetic lethal toxicity for FLT3-targeted acute myeloid leukemia therapy” (eLife, 2014)
“Also recorded” adds a separate entry of the source.

Legend:
[1] = tested on: HMC1.1 cells; assay: Caspase-3 activation (apoptosis), HMC1.1; type: cell-based, human; details: 48 hr, up to 2,500 nM
Procedure: Cells were fixed with 4% (vol/vol) paraformaldehyde (Electron Microscopy Sciences) and permeabilized with 100% (vol/vol) methanol (Electron Microscopy Sciences, Hatfield, PA) followed by staining with a FITC-conjugated antiactive caspase-3 antibody (BD Pharmingen, San Jose, CA). Cells were run on a BD LSRFortessa cell analyzer, and data were analyzed using FlowJo (Tree Star Inc., Ashland, OR). Percentage of live cells was determined by negative staining for activated caspase-3 (see Figure 2B,C).

[2] = tested on: Ba/F3 FLT3 ITD + F691L; assay: Ba/F3 cell viability, FLT3 ITD + F691L; type: cell-based; details: Mus musculus, Ba/F3, 48 hr, ± SEM
Procedure: (§1) Stable Ba/F3 lines were generated by retroviral spinfection with the appropriate mutated plasmid as previously described ([Smith et al., 2012]).
(§2) Exponentially growing cells (5 × 10^3 cells per well) were plated in each well of a 96-well plate with 0.1 ml of RPMI 1640 + 10% (vol/vol) FCS containing the appropriate concentration of drug in triplicate, and cell viability was assessed after 48 hr as previously described ([Smith et al., 2012]). […] Log10-scale transformation of ratios, followed by conditional formatting using xcel spreadsheet software yielded the colored diagrams shown.
(§3) Mutations isolated in the screen were engineered into pMSCVpuroFLT3–ITD by QuikChange mutagenesis (Stratagene, La Jolla, CA) as previously described ([Smith et al., 2012]).

[3] = biological target: KIT (Homo sapiens, UniProt P10721); assay: Reaction Biology Corp kinase assay at Km-ATP (Figure 1C), KIT
[4] = tested on: K562 cells (Bcr-Abl); assay: Cell proliferation/viability assay, K562; type: cell-based; details: Homo sapiens, 48 hr
Procedure: as §2

[5] = tested on: Ba/F3 Parental + IL3; assay: Ba/F3 cell viability, Parental + IL3; type: cell-based; details: Mus musculus, BaF3; Ba/F3, 48 hr, ± SEM
Procedure: as §1, §2

[6] = tested on: Ba/F3 FLT3 D835Y; assay: Ba/F3 cell viability, FLT3 D835Y; type: cell-based; details: Mus musculus, BaF3; Ba/F3, 48 hr, ± SEM
Procedure: as §1, §2, §3

[7] = tested on: MV4;11 cells (FLT3-ITD homozygous); assay: Cell proliferation/viability assay, MV4;11; type: cell-based; details: Homo sapiens, 48 hr, ± SEM
Procedure: as §2

[8] = biological target: CSF1R (Homo sapiens, UniProt P07333); assay: Reaction Biology Corp kinase assay at Km-ATP (Figure 1C), CSF1R
[9] = biological target: PDGFRβ (Homo sapiens, UniProt P09619); assay: Reaction Biology Corp kinase assay at Km-ATP (Figure 1C), PDGFRβ
[10] = tested on: FLT3/ITD-injected zebrafish embryos; assay: Zebrafish FLT3/ITD-induced mpo+ myeloid cell expansion; type: in vivo, Danio rerio (zebrafish); details: 10 μM, 6 to 30 hpf, read at 30 hpf
Procedure: Figure 4. […] (N–P) Three categories of mpo transcription (N, normal; O, intermediate; P, severe) were defined based on the WISH results (three experiments). […] Scale bar equals 500 μm. Blue arrows indicate the pericardial edema, green arrows indicate tail shortening and curving, and red arrows indicate the FLT3-ITD AML mpo+ myeloid cells expansion. […] For all experiments: Zebrafish embryos were collected and kept in standard E3 medium at 28°C. Different concentrations of either drug were added to the E3 medium from 6 hr post fertilization (hpf) to 3 days post fertilization (dpf). Embryos treated with DMSO or 10 μM drug from 6 to 30 hpf were collected for mpo whole mount in situ hybridization (WISH) analysis. […] plasmid DNA containing FLT3/ITD sequence was microinjected into one-cell stage embryos, and the uninjected embryos were used as control. FLT3/ITD-injected embryos were treated with DMSO or 10 μM drug from 6 to 30 hpf.
Wild-type (WT) zebrafish were maintained under standard conditions, and embryos were staged as described ([He et al., 2014]). The study was approved by the Committee of the Use of Live Animals for Teaching and Research in The University of Hong Kong.

[11] = tested on: Ba/F3 FLT3 ITD + A848P; assay: Ba/F3 cell viability, FLT3 ITD + A848P; type: cell-based; details: Mus musculus, Ba/F3, 48 hr, ± SEM
Procedure: as §1, §2, §3

[12] = tested on: Ba/F3 FLT3 ITD + Y842H; assay: Ba/F3 cell viability, FLT3 ITD + Y842H; type: cell-based; details: Mus musculus, Ba/F3, 48 hr, ± SEM
Procedure: as §1, §2, §3

[13] = biological target: T1, FLT3 (Homo sapiens, UniProt P36888); assay: Reaction Biology Corp kinase assay at Km-ATP (Figure 1C), FLT3
T1 sequence (P36888 27-993): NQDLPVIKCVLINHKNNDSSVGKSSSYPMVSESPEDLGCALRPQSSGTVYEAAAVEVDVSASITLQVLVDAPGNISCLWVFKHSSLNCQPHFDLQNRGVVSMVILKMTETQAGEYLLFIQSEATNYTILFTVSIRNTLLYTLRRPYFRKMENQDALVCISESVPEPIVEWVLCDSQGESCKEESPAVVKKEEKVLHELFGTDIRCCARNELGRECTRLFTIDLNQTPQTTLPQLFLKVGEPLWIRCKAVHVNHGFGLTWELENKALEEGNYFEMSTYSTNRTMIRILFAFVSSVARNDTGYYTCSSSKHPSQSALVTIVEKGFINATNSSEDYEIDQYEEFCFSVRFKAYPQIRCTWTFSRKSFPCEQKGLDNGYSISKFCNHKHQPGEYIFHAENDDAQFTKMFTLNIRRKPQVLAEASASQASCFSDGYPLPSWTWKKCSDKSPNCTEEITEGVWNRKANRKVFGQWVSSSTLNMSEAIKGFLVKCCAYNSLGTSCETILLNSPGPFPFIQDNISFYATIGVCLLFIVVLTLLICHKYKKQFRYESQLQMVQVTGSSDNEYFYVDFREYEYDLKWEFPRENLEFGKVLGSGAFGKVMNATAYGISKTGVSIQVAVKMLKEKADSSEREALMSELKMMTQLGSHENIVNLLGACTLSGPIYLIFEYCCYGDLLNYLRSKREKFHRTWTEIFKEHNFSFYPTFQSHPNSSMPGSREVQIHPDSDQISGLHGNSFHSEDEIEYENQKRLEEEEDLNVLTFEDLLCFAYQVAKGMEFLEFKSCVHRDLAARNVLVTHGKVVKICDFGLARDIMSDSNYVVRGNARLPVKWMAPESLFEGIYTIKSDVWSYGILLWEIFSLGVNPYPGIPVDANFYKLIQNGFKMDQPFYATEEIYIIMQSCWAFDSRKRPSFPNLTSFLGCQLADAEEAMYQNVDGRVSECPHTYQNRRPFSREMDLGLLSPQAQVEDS

Sequence of CSF1R (P07333 20-972): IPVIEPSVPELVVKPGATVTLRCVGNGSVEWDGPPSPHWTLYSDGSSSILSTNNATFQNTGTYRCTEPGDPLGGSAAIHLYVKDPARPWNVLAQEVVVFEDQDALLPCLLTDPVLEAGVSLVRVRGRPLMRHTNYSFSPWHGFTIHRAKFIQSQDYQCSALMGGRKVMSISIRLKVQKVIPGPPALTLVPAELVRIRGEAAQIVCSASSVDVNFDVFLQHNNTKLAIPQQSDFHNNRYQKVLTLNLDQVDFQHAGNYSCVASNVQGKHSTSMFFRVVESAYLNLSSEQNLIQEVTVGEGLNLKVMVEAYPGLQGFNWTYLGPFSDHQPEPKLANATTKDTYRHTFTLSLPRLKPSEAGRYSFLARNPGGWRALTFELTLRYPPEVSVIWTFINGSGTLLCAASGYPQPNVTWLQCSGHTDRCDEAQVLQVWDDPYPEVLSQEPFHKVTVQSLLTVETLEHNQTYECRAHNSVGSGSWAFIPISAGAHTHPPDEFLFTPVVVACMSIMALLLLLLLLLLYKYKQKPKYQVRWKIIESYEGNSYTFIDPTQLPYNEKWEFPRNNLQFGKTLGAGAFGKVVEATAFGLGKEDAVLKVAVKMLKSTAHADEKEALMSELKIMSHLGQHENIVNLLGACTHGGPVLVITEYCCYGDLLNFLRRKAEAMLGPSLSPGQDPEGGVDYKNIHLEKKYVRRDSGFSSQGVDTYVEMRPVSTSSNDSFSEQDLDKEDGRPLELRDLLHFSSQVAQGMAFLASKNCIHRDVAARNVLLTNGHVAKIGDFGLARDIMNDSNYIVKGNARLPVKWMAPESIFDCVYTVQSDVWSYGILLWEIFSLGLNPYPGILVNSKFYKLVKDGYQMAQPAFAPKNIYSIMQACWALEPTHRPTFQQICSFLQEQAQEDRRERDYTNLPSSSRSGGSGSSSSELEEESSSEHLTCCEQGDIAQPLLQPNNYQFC
Sequence of KIT (P10721 26-976): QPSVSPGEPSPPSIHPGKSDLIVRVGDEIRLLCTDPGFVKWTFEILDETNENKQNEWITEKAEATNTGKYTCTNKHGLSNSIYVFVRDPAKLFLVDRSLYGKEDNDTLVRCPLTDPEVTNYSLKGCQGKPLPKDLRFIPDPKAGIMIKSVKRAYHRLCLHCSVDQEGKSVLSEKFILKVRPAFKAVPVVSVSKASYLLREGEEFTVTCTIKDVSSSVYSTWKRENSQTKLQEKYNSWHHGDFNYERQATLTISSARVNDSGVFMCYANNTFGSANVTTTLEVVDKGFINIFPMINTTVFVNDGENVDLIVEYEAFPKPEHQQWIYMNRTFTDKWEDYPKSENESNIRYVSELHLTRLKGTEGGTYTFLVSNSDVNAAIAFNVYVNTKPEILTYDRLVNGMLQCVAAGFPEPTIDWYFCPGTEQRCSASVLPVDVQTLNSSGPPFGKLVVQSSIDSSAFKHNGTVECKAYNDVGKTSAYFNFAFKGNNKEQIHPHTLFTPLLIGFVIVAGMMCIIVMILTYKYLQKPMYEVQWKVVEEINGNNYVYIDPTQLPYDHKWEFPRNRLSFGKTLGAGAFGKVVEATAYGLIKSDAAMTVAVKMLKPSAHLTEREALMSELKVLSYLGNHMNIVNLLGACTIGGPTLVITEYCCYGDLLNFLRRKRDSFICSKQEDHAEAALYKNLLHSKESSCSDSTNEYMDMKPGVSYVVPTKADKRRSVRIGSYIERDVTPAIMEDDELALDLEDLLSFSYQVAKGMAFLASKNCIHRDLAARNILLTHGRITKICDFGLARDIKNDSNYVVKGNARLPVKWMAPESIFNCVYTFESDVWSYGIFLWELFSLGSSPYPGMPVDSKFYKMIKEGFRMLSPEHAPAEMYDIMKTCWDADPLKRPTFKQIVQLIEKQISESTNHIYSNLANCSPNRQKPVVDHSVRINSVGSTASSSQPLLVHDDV
Sequence of PDGFRβ (P09619 33-1106): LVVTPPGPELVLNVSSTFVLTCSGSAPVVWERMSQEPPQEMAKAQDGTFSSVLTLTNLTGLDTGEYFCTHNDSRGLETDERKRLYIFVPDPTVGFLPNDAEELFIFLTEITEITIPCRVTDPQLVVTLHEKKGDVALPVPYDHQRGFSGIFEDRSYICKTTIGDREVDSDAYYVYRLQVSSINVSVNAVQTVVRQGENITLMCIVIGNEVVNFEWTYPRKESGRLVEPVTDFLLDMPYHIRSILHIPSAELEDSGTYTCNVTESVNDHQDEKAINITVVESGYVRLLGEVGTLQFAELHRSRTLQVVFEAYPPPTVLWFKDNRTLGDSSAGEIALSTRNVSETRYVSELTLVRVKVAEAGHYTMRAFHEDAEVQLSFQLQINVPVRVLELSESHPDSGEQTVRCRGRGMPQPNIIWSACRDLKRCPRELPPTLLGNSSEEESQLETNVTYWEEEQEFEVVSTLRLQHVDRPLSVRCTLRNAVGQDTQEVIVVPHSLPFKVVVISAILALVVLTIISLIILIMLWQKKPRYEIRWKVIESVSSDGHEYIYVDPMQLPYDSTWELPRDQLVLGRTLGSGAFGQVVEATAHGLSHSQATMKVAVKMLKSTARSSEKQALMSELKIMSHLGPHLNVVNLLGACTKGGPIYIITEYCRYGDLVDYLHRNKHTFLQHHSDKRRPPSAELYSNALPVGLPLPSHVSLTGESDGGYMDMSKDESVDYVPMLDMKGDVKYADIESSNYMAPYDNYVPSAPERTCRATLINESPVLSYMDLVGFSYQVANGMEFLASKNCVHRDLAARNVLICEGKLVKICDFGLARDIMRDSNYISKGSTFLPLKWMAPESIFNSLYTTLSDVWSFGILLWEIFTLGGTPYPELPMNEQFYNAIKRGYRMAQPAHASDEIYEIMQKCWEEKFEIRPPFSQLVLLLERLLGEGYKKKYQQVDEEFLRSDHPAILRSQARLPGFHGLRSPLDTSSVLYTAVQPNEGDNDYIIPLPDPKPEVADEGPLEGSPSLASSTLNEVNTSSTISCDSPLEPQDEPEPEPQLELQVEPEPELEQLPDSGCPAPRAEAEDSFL

IC50 [2]: 144 ± 97 nM
IC50 [3]: 1020 nM
IC50 [4]: > 5000 nM
IC50 [6]: 18 ± 12 nM
IC50 [7]: 41 ± 6 nM
IC50 [8]: > 9880 nM
CSF1R/FLT3 IC50 ratio ([8]; ratio of Figure 1C IC50s): > 16,500
IC50 [9]: 80 ± 11 nM
IC50 [11]: 53 ± 31 nM
IC50 [12]: 38 ± 24 nM
IC50 [13]: < 0.6 nM
Structure (SMILES): CC1NC(=O)c2c1c1c3ccccc3n(CCCN)c1c1[nH]c3ccccc3c21 (centres unmarked) [Star 27]
apoptosis/toxicity (caspase-3) in KIT-addicted HMC1.1 cells [1]: very little up to 2,500 nM; also recorded: minimal apoptosis
IC50 [5]: 2300 nM
effect on FLT3/ITD-induced mpo+ myeloid cells expansion [10]: rescue of normal phenotype approaching that seen for AC220
